We go through 14 molecules from PubChem BioAssay (NCI).

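All cell lines were grown in 96-well plates and treated with compound for 48 hours. The concentration for full growth arrest is given as TGI.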

Test systems include HL-60(TB) leukemia; M14 melanoma; MDA-MB-231 breast; MDA-MB-435; MDA-N; MOLT-4 leukemia; OVCAR-5 ovarian; PC-3 prostate; SK-MEL-2 melanoma; UO-31 renal.
Test in all cases: inhibition of tumour cell growth, NCI panel, 48 h

As for `O=C1C=C(OCCCCl)C(=O)c2c(O)ccc(O)c21`, the TGI in the assay on HL-60(TB) leukemia was determined as 3.03 µM; in the assay on M14 melanoma, 0.341 µM; in the assay on MDA-MB-231 breast, 3.39 µM; in the assay with MDA-MB-435, 0.364 µM; in the assay with MDA-N it was 0.349 µM; in the assay with MOLT-4 leukemia, 6.06 µM. The TGI in the assay on OVCAR-5 ovarian is 2.85 µM; with PC-3 prostate, 3.98 µM; in the assay with SK-MEL-2 melanoma it was 2.43 µM; in the assay with UO-31 renal, 2.41 µM.

Turning to `Cn1c(=O)sc2cc(C(=S)N3CCC(Cc4ccccc4)CC3)ccc21`, the TGI in the assay with HL-60(TB) leukemia, in the assay with M14 melanoma, in the assay on MDA-MB-231 breast, in the assay with MDA-MB-435, in the assay on MDA-N and with MOLT-4 leukemia was more than 100 µM throughout. For the same molecule, the TGI in the assay with OVCAR-5 ovarian, with PC-3 prostate and with SK-MEL-2 melanoma was more than 100 µM each time.

Turning to `C=C(CN1CC2C[C@](C(=O)OC)(c3cc4ccccc4[nH]3)C1C(OC)C2OC)S(=O)(=O)c1ccccc1` (stereo partly drawn), the TGI in the assay on HL-60(TB) leukemia was 5.12 µM; in the assay on M14 melanoma, 9.36 µM; in the assay on MDA-MB-231 breast it was 10.9 µM; with MDA-MB-435 it was 7.21 µM; in the assay with MDA-N, 8.94 µM; in the assay on MOLT-4 leukemia it was 2.83 µM. In addition, the TGI was found to be 13.1 µM with OVCAR-5 ovarian, 13 µM in the assay with PC-3 prostate, 12.3 µM in the assay on SK-MEL-2 melanoma and 3.77 µM in the assay on UO-31 renal.

Regarding `COc1ccc(C(=O)/C=C/c2ccc(OCCSCCCCCCCCCCSCCOc3ccc(/C=C/C(=O)c4ccc(OC)c(OC)c4)cc3)cc2)cc1OC`, the TGI in the assay on HL-60(TB) leukemia, in the assay on M14 melanoma, in the assay on MDA-MB-231 breast, in the assay on MDA-MB-435, in the assay with MDA-N and with MOLT-4 leukemia was more than 100 µM throughout. The molecule further came in with a TGI in the assay with PC-3 prostate of more than 100 µM.

Turning to `CC(C)Cc1cc2c(cc1O)CCC1C2CC[C@@]2(C)C1CC[C@@H]2O` (stereo partly drawn), the TGI in the assay on HL-60(TB) leukemia worked out at 8 µM; in the assay with M14 melanoma, 19.3 µM; in the assay on MDA-MB-231 breast, 20 µM; in the assay on MDA-MB-435, 27.8 µM; in the assay with MDA-N, 19.7 µM; with MOLT-4 leukemia it was 17.2 µM. Also, the TGI in the assay with OVCAR-5 ovarian turned out to be 34.2 µM; with PC-3 prostate, 21 µM; with SK-MEL-2 melanoma it was 15.7 µM; in the assay with UO-31 renal, 13.4 µM.

As to `C[N+](C)(C)CC(=O)N/N=C/c1ccncc1`, the TGI with HL-60(TB) leukemia, with M14 melanoma, in the assay with MDA-MB-231 breast, in the assay on MDA-MB-435, with MDA-N and in the assay on MOLT-4 leukemia was more than 100 µM each time. Also, the TGI with OVCAR-5 ovarian, in the assay on PC-3 prostate, in the assay with SK-MEL-2 melanoma and in the assay with UO-31 renal was more than 100 µM in each case.

As for `c1ccc2c(c1)NC1(N3CCCCC3)CCCCC21` (stereo not drawn), the TGI in the assay with HL-60(TB) leukemia is 82.2 µM; with M14 melanoma, more than 100 µM; in the assay on MDA-MB-231 breast, more than 100 µM; in the assay on MDA-MB-435 it was more than 100 µM; with MDA-N, more than 100 µM; in the assay with MOLT-4 leukemia, 85.1 µM. The TGI in the assay on OVCAR-5 ovarian, with PC-3 prostate, in the assay with SK-MEL-2 melanoma and with UO-31 renal was more than 100 µM in each case.

Turning to `CN1CN(c2ccccc2)C2(CCN(CCC3COc4ccccc4O3)CC2)C1=O` (stereo not drawn), the TGI with HL-60(TB) leukemia is 45.8 µM; in the assay on M14 melanoma, 42 µM; in the assay on MDA-MB-231 breast, more than 100 µM; in the assay on MDA-MB-435, 89.4 µM; in the assay on MDA-N it was 53.1 µM; in the assay with MOLT-4 leukemia, 70.1 µM. Further, the TGI with OVCAR-5 ovarian was 45.9 µM; with PC-3 prostate, more than 100 µM; in the assay with UO-31 renal, 38.2 µM.

In the case of `O=C1CSC(c2c[nH]c3ccccc23)N1c1ccccc1[N+](=O)[O-]` (stereo not drawn), the TGI with HL-60(TB) leukemia, with M14 melanoma, in the assay with MDA-MB-231 breast, with MDA-MB-435, in the assay with MDA-N and in the assay with MOLT-4 leukemia was more than 100 µM in each case. For the same molecule, the TGI in the assay with OVCAR-5 ovarian, with PC-3 prostate and in the assay on UO-31 renal was more than 100 µM throughout.

With `CC1C(OC2O[C@@H]3O[C@@]4(C)CC[C@H]5[C@H](C)CC[C@@H](C2C)[C@@]35O4)O[C@@H]2O[C@@]3(C)CC[C@H]4[C@H](C)CC[C@@H]1[C@@]24O3` (stereo partly drawn), the TGI in the assay on HL-60(TB) leukemia, in the assay with M14 melanoma, with MDA-MB-231 breast, in the assay with MDA-MB-435, in the assay with MDA-N and with MOLT-4 leukemia was more than 50 µM each time. Also, the TGI in the assay on OVCAR-5 ovarian, in the assay with PC-3 prostate and in the assay on SK-MEL-2 melanoma was more than 50 µM throughout.

As for `CC(C)(CCCCC(C)(C)[N+](C)(C)C)[N+](C)(C)C`, the TGI with HL-60(TB) leukemia, with M14 melanoma, with MDA-MB-231 breast, in the assay on MDA-MB-435, with MDA-N and with MOLT-4 leukemia was more than 100 µM throughout. The TGI with OVCAR-5 ovarian, in the assay with PC-3 prostate and in the assay with UO-31 renal was more than 100 µM throughout.

As to `OCCOc1ccccc2cccc1-2`, the TGI with HL-60(TB) leukemia, with M14 melanoma, in the assay on MDA-MB-231 breast, in the assay with MDA-MB-435, in the assay on MDA-N and with OVCAR-5 ovarian was more than 100 µM throughout. In addition, the TGI with PC-3 prostate, in the assay with SK-MEL-2 melanoma and with UO-31 renal was more than 100 µM each time.

`C1CC[C@H]2SSC3CCCC[C@H]3SSC2C1` (stereo partly drawn): the TGI in the assay on HL-60(TB) leukemia, in the assay on M14 melanoma, with MDA-MB-231 breast, with MDA-MB-435, in the assay on MDA-N and in the assay on MOLT-4 leukemia was more than 100 µM each time. Also, the TGI in the assay with OVCAR-5 ovarian, with PC-3 prostate and with UO-31 renal was more than 100 µM each time.

Regarding `C/C(=N\Nc1nc2cccnc2s1)c1ccccn1`, the TGI is more than 100 µM with HL-60(TB) leukemia; 38.6 µM in the assay with MDA-MB-231 breast; more than 100 µM in the assay on MDA-MB-435; more than 100 µM with MDA-N; more than 64.4 µM with OVCAR-5 ovarian; 30.6 µM in the assay on PC-3 prostate. The TGI was more than 34.6 µM with SK-MEL-2 melanoma and 0.307 µM with UO-31 renal.
